Test results taken from ChEMBL document CHEMBL1201862, “PubChem BioAssay data set” (2004).
Activity calls are given as the source filed them.

What was measured:
[1] = NIH-3T3 fibroblast cytotoxicity, dose response, cytotoxicity control, cell-based, fluorescence, Alamar Blue, secondary assay (AID 2327); type: functional;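 note: NIH-3T3 mouse fibroblasts cultured with fluconazole at 8 µg/mL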
BJ [2] = test: cytotoxicity toward BJ-TERT fibroblasts, dose response, cell-based, RAS-independent, luminescence (AID 1933); type: functional; conditions: Homo sapiens
BJ [3] = test: cells; type: functional, cell-based; conditions: Homo sapiens
[4] = C. albicans growth with fluconazole, confirmation, fluorescence, retest (AID 2467); type: functional, cell-based
BJ [5] = test: cytotoxicity toward BJ-TERT-LT-ST fibroblasts, dose response, cell-based, RAS-independent, luminescence (AID 1935); type: functional; conditions: Homo sapiens;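 note: BJ fibroblasts immortalized with TERT plus LT and ST oncogenes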
[6] = cytotoxicity toward DRD oncogenic fibroblasts, dose response, cell-based, non-viral oncogenic, luminescence (AID 1934); type: functional; conditions: Homo sapiens
[7] = cytotoxicity in HEK-293T cells, dose response, cytotoxicity control for TCR NF-kB inhibitor project, luminescence, T-cell screen hits (AID 489026); type: functional, cell-based;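 note: cells exposed to compound about 14 hours before the viability readout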
[8] = molecular target: T1, Microphthalmia-associated transcription factor (Homo sapiens, UniProt O75030); test: TRPM1 promoter luciferase signal decrease, dose response, MITF inhibitor project, cell-based, SK-MEL-5, cherry-picked, set 3 (AID 493073); type: functional
T1 sequence (O75030 whole entry): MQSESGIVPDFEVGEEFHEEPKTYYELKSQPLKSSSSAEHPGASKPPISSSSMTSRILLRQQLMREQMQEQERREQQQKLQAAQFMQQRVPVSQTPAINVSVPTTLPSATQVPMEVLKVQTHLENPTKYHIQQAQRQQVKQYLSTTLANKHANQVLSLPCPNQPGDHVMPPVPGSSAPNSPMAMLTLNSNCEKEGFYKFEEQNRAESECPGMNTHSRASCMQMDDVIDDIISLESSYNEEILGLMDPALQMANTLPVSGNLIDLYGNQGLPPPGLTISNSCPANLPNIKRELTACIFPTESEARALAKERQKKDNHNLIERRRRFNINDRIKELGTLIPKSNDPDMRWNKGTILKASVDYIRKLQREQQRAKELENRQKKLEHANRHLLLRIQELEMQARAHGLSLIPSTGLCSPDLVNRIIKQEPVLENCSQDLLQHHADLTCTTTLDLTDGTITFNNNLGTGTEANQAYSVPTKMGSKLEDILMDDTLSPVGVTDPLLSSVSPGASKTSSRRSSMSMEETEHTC

BJ [9] = test: cytotoxicity toward Ras-transformed BJeLR fibroblasts, dose response, cell-based, alamar blue fluorescence, cherrypicked samples (AID 2631); type: functional; conditions: Homo sapiens;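 note: confirmatory dose-response assay in RAS-dependent BJ fibroblasts engineered with TERT, LT and ST, with cytotoxicity read by fluorescence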
[10] = Shn3 3'UTR reporter inhibitors, dose response, cell-based, Clone20 osteoblasts, firefly luciferase, cherry-picked (AID 624132); type: functional;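 note: firefly luciferase luminescence from reporter carrying the Shn3 3'UTR in osteoblasts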
[11] = HepG2 cell cytotoxicity, dose response, cytotoxicity control for Shn3 inhibitor project, CellTiter-Glo, cherry-picked (AID 624134); type: functional, cell-based
[12] = control 3'UTR Renilla luciferase suppression, dose response, counter-screen for Shn3 inhibitor project, cell-based, Clone20-Shn3RL, cherry-picked (AID 624133); type: functional
[13] = A549 cell cytotoxicity, dose response, cytotoxicity control, plate reader, cherry-pick, antagonist series (AID 743412); type: functional, cell-based
[14] = HepG2 cell cytotoxicity, dose response, cytotoxicity control, plate reader, cherry-pick, antagonist series (AID 743416); type: functional, cell-based
[15] = HEK293 cell cytotoxicity, dose response, cytotoxicity control, plate reader, cherry-picked samples (AID 743446); type: functional, cell-based
[16] = molecular target: T2, Mitochondrial peptide methionine sulfoxide reductase (Bos taurus, UniProt P54149); test: Absorbance-based biochemical high throughput dose response assay for activators of Methionine sulfoxide reductase A (MsrA).; type: functional
T2 sequence (P54149 whole entry): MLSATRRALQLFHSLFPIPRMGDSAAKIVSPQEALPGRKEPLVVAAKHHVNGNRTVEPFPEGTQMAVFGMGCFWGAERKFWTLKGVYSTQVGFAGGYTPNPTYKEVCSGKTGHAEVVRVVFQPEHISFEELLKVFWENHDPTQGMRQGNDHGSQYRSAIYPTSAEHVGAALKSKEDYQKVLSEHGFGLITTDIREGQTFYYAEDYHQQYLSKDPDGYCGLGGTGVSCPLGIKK

Melanocortin receptor 4 = Melanocortin receptor 4 (Homo sapiens, UniProt P32245); type: functional, cell-based;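 note: Cell-based assay with luminescence read-out, confirmatory dose-response testing for agonist activity of biased ligands at MC4R; human U2OS cells with tagged receptor and beta-arrestin; potency of agonists that increase receptor coupling to beta-arrestin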
H9c2 = test: cells; type: functional, cell-based; conditions: Rattus norvegicus, H9c2, Myocardium;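 note: confirmatory concentration-response retest of ultra-high-throughput screening hits for modulation of myocardial damage; cell death induced by hydrogen peroxide oxidative stress; compound pretreatment for 60 min then peroxide exposure for 2 h; potency is for protecting the cells against peroxide damage rather than for killing them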
[17] = Luminescence Cell-Based Dose Retest to Confirm Inhibitors of Cancer Stem Cells. [Related pubchem assays (depositor defined):AID2717, AID2721]; type: functional; conditions: Homo sapiens
[18] = molecular target: T3, Replicative DNA helicase DnaB (Mycobacterium tuberculosis, UniProt P9WMR3); test: DnaB intein splicing inhibitors, dose response, biochemical, cell-free fluorescence (AID 449749); type: functional
T3 sequence (P9WMR3 whole entry): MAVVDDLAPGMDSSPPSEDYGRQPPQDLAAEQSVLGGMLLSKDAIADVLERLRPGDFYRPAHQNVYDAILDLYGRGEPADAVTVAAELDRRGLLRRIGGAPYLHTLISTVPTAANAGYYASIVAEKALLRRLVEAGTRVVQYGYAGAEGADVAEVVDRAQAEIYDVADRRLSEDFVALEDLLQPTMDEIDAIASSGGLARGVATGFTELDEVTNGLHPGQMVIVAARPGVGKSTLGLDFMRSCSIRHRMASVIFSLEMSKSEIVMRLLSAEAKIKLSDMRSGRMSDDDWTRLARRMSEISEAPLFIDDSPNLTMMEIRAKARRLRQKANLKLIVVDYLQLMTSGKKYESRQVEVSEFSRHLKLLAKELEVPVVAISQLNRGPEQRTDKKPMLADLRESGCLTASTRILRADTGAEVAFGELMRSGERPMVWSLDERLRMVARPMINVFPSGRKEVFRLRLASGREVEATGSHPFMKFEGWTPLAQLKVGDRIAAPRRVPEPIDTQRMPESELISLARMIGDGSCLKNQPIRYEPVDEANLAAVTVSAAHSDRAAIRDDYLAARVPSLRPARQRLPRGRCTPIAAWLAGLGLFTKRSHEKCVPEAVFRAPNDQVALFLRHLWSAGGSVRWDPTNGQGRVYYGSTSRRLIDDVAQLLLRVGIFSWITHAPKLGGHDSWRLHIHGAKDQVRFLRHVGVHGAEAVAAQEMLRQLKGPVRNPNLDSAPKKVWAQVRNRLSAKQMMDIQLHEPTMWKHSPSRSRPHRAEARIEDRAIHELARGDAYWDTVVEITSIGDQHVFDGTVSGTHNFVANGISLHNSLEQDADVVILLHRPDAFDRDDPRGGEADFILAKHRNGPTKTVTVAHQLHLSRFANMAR

Vero [19] = test: cells; type: functional, cell-based; conditions: Chlorocebus sabaeus
Protein RecA = molecular target: T4, Protein RecA (Mycobacterium tuberculosis, UniProt P9WHJ3); test: Fluorescence Cell-Free Homogeneous Dose Retest to Identify Inhibitors of RecA-Intein Splicing Activity. [Related pubchem assays (depositor defined):AID2097, AID2223, AID489010, AID492950]; type: functional
T4 sequence (P9WHJ3 whole entry): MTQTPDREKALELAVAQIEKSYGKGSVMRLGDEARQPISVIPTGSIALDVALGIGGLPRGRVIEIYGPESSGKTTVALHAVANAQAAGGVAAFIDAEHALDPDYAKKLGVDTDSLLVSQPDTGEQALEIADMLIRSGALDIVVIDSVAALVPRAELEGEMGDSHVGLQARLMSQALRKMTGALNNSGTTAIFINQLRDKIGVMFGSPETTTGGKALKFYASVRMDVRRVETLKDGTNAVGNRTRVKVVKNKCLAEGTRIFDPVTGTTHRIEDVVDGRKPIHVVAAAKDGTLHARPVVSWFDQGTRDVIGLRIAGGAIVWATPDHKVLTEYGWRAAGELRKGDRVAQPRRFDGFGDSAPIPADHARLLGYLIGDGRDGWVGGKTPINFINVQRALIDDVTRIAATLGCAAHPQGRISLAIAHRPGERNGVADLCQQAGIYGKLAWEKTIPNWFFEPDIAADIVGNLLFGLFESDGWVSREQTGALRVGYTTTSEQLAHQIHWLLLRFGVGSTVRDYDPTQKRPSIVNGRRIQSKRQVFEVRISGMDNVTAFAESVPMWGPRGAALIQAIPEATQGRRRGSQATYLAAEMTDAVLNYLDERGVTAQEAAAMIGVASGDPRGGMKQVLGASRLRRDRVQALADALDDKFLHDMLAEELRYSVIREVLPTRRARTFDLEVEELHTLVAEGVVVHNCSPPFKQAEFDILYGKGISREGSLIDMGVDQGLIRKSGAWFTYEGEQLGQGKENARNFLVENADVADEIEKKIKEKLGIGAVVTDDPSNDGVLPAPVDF

Vero [20] = test: cells; type: functional; conditions: Chlorocebus sabaeus
[21] = molecular target: Luciferin 4-monooxygenase (Photinus pyralis, UniProt P08659); test: firefly luciferase enzyme inhibitors, dose response, biochemical, luminescence (AID 1891)
[22] = Luminescence Cell-Based Dose Confirmation HTS to Identify Inhibitors of Platelet Dense Granule Release. [Related pubchem assays: 1663 (Primary HTS), 1678 (Summary of Project)]; type: functional
Jurkat = test: antigen receptor-induced NF-kB inhibitors, dose response, Jurkat, luciferase reporter, luminescence, B- and T-cell (AID 489004); type: functional, cell-based; conditions: Homo sapiens;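 note: NF-kB luciferase reporter Jurkat cells stimulated with PMA plus ionomycin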
[23] = cytotoxicity in HEK-293T NF-kB-Luc cells, dose response, cytotoxicity control for B/T-cell NF-kB inhibitor project, cell-based, uHTS hits (AID 489019); type: functional;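 note: IC50 reflects cytotoxicity as loss of cell viability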
[24] = inhibitors of HIV Env-driven cell fusion, dose response, cherry-pick (AID 652057); type: functional, cell-based
[25] = CEM21 lymphoblast cell cytotoxicity, dose response, cytotoxicity control for viral fusion inhibitor project, CellTiter-Glo luminescence, cherry-picked (AID 652042); type: functional, cell-based;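 note: potency for signal decrease meaning cytotoxicity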
[26] = ZM109 Env clade C HIV-1 fusion inhibitors, dose response, HeLa effector, CEM target cells, luciferase, cherry-pick (AID 652058); type: functional, cell-based
[27] = off-target signal loss in HeLa-CEM21 co-culture – HeLa F-luc CTL cells, cherry-picked, counter-screen for HIV-1 Env fusion inhibitor project, dose response (AID 652040); type: functional, cell-based;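 note: potency for signal decrease marking cytotoxic or nonspecific inhibition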
[28] = inhibitors of clade B AD8 Env fusion, dose response, cell-based, cherry-pick (AID 652062); type: functional;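 note: luciferase signal from cell-cell fusion driven by HIV-1 clade B AD8 Env; potency is for inhibitors of fusion seen as a drop in luminescence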
[29] = LGR2 antagonists, dose response, cell-based, HEK293, CRE-luciferase reporter, cherry pick, set 2 (AID 743343); type: functional;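 note: transfected cells were stimulated with diluted bursicon conditioned medium after compound addition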
[30] = MC4R antagonists, dose response, counter-screen for LGR2 antagonist project, cell-based, plate reader, cherry pick (AID 743444); type: functional;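 note: transfected HEK 293 cells stimulated with alpha-MSH peptide; potency of inhibitors of the alpha-MSH evoked signal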

Chain of Melanocortin receptor 4 (P32245 whole entry): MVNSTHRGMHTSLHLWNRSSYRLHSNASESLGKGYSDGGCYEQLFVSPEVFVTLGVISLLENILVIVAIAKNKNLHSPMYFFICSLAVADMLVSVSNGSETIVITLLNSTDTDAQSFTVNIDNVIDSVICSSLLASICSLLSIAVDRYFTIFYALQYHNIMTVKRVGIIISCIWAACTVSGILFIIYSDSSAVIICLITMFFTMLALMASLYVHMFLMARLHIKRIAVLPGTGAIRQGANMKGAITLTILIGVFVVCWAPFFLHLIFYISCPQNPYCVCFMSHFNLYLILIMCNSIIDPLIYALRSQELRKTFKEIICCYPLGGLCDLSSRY
Chain of Luciferin 4-monooxygenase (P08659 whole entry): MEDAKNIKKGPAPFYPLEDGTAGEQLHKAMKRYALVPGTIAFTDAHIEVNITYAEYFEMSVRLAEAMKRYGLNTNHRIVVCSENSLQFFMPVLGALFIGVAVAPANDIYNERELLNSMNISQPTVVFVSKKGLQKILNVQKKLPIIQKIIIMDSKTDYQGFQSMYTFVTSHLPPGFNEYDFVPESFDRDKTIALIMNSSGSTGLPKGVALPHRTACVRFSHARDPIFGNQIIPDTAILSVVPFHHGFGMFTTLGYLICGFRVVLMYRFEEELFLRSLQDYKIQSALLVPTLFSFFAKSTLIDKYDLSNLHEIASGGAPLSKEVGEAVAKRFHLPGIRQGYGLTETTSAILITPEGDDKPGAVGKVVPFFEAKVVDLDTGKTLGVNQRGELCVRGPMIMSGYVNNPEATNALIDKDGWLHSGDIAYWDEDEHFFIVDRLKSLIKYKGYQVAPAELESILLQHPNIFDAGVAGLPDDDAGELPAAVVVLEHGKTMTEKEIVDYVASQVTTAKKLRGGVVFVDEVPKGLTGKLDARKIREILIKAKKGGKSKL

O=c1c2ccccc2nc(/C=C/c2ccc([N+](=O)[O-])o2)n1-c1ccc(O)cc1
inconclusive: EC50 [1] 3.91 µM | EC50 (BJ [3]) 3.48 µM | EC50 (BJ [5]) 3.08 µM
inactive: IC50 [7] > 80 µM
active: EC50 (BJ [2]) 4.33 µM | EC50 [4] 0.165 µM | EC50 [6] 2.97 µM | AC50 [8] 4.45 µM | EC50 (BJ [9]) 7.06 µM | AC50 [10] 3.24 µM | AC50 [11] 5.99 µM | AC50 [12] 4.9 µM | AC50 [13] 4.35 µM | AC50 [14] 4.17 µM | AC50 [15] 4.16 µM

Cc1nc2c(nc1C)C(=O)c1ccccc1C2=O
inactive: EC50 [16] 95.6 µM

NS(=O)(=O)c1ccc(NC(=O)c2cc(-c3cccs3)nc3ccccc23)cc1
inactive: EC50 (BJ [9]) > 133 µM
inconclusive: EC50 (BJ [5]) > 75 µM
active: EC50 (BJ [2]) 14.1 µM | EC50 (BJ [3]) 83.1 µM | EC50 [6] 10.8 µM

Cc1cc(S)nc(S)n1
inactive: EC50 [16] > 104 µM

COc1cccc(-c2cnc3c(NC(C)=O)cc(-c4cc(F)ccc4OC)cn23)c1
inactive: EC50 (Melanocortin receptor 4) > 89.2 µM

COc1cccc(-c2cnc3c(NC=O)cc(-c4cccc(C(=O)N(C)C)c4)cn23)c1
inactive: IC50 (H9c2) > 79 µM | EC50 (Melanocortin receptor 4) > 89.2 µM

C=CCSC(=C(C#N)C#N)c1cc2c([nH]1)CCCC2
active: AC50 [17] 6.73 µM | IC50 (Vero [19]) > 25 µM | EC50 (Protein RecA) 6.29 µM | CC50 (Vero [20]) 10.5 µM
inactive: AC50 [18] > 380 µM

COc1ccccc1-c1cc(NC=O)c2ncc(-c3ccc(F)cc3)n2c1
active: EC50 (Melanocortin receptor 4) > 9.91 µM

COc1ccc(-c2cc3nc(C)n(N)c(=O)c3s2)cc1
active: EC50 (BJ [3]) 2.27 µM | EC50 [21] 0.263 µM | EC50 [22] 0.443 µM | EC50 (BJ [5]) 10.6 µM | EC50 [6] 2.15 µM | IC50 (Jurkat) 0.47 µM | AC50 [10] 1.13 µM | AC50 [11] 4.71 µM | AC50 [24] 0.95 µM | AC50 [25] 4.71 µM | AC50 [26] 8.99 µM | AC50 [27] 2.33 µM | AC50 [28] 1.51 µM | AC50 [13] 3.1 µM | AC50 [14] 3.72 µM | AC50 [29] 0.26 µM | AC50 [30] 0.289 µM | AC50 [15] 3.01 µM
inactive: IC50 [23] > 80 µM | EC50 (BJ [9]) > 133 µM
inconclusive: EC50 (BJ [2]) 3.64 µM
